Reference: US20240287063A1, “METHIONINE ADENOSYLTRANSFERASE 2A INHIBITOR” (NANJING CHIA TAI TIANQING PHARMACEUTICAL CO., LTD., priority 2021, published 2024)

Columns and labels:
MAT2A enzyme = molecular target: T1, MAT2A enzyme (Homo sapiens, UniProt P31153); assay: Enzymatic testing method for MAT2A (Biomol Green, OD620); format: biochemical; conditions: score by IC50 for inhibiting MAT2A; read-out: MAT2A inhibition score
T1 construct: purchased BPS 71401
Method: • a) A 5×MAT2A test buffer (250 mM Tris-HCl, pH 8.0; 250 mM KCl; 75 mM MgCl2; 0.025% BSA; 0.05% Brij35; 1.5 mM EDTA) was first prepared and partially diluted to 1× for later use; • b) Preparation and addition of MAT2A enzyme (BPS, 71401): the MAT2A enzyme was prepared into 3.674 ng/L by using the 1×MAT2A test buffer (1.67×, final concentration 2.20 ng/L), a BioTek (MultiFlo FX) automatic liquid separator was used, 15 μL of 1.67×MAT2A enzyme solution was added to compound test wells and negative control wells respectively, and 15 μL of 1×MAT2A test buffer was added to blank control wells; • c) Preparation and addition of a compound: a compound to be tested was diluted with DMSO from 10 mM stock solution to 100 μM, a positive drug AGI-24512 was diluted under the same conditions, and the diluted compound and positive drug were automatically sprayed into each well by using a Tecan compound titrator (D300e) according to preset concentration gradients, where the spray volume was little and negligible. The concentration gradient was initially 1 μM, the dilution was implemented by ½ log, and a total of 8 gradients were set. Centrifugation at 2500 rpm for 30 s and incubation at 25° C. for 30 min were performed; • d) Preparation of ATP: 10 mM ATP (Sigma, A7699) was diluted with 1×MAT2A test buffer to 700 μM for later use; • e) Preparation and addition of a substrate and ATP mixture: 5×MAT2A test buffer, 3 μL/well; 750 μM L-methionine (Adamas, 01100469), 2.5 μL/well; 700 μM ATP, 2.5 μL/well; and double distilled water, 2 μL/well. A total amount of required mixture was prepared according to the number of test wells, and 10 μL of the mixture was added to each well by using the BioTek (MultiFlo FX) automatic liquid separator, followed by centrifugation at 2500 rpm for 30 s and reaction at 25° C. for 150 min; • f) Addition of Biomol Green detection reagent: 50 μL of Biomol Green (Enzo, BML-AK111) was added to each well by using the BioTek (MultiFlo FX) automatic liquid separator, followed by centrifugation at 2500 rpm for 30 s and incubation at 25° C. for 20 minutes; • g) After the reaction, OD620 values were read by using a Perkin Elmer (Envision 2105) multifunctional plate reader.
A formula for calculating an inhibition rate was as follows: […]
Wherein, • % Inhibition: inhibition rate % • ODsample: OD620 value in a sample well; • ODmin: representing a mean OD620 value of blank control wells without the enzyme or compound to be tested; • ODmax: representing a mean OD620 value of negative control wells with the enzyme and without the compound.
Then a dose-effect curve log(inhibitor) vs. response-Variable slope was fitted by usingGraphPad Prism 5 software to obtain an IC50 value of compound for MAT2A enzyme inhibition.

HCT116 MTAP −/− cells = assay: Cell testing method: HCT116 MTAP-/- cell proliferation inhibition (CellTiter-Glo, 120 h); format: cell-based; conditions: Homo sapiens, HCT-116; score by IC50 for inhibiting HCT116 MTAP−/− cells
Method: HCT116 MTAP −/− cells (purchased from Horizon Discovery): human colorectal cancer cell lines with MTAP gene deletion were cultured in medium RPMI 1640+10% FBS (Fetal bovine serum). On day 0 of the experiment, the live cell density of the foregoing cells in logarithmic growth phase was adjusted to 5000 cells/ml, the cells were inoculated to a 96-well plate by an amount of 100 μl/well, and a blank group was set in parallel; and the inoculated cell plate was put into a 37° C., 5% CO2 incubator for overnight culture.
On day 1 of the experiment, the overnight cultured cell plate was taken out, the supernatant was discarded, 80 μl of serum-free RPMI 1640 medium was added to each well, and place the cells in an incubator for starvation cultivation for 4 h. The compound to be tested was dissolved in DMSO (dimethyl sulfoxide) to prepare a 10 mM compound stock solution. After starvation, the cell plate was taken out, and 80 μl of RPMI 1640+20% FBS medium was added to each well; the cell plate was placed on an automatic liquid dispenser D300e (Tecan), and a dosing program was set as follows: a maximum concentration of the compound to be tested was 30 μM, the compound was diluted with DMSO by a 3 times concentration gradient, there was a total of 10 concentrations, two duplicate wells were set for each concentration, and the DMSO final concentration in each well of the 96-well plate was 0.3%, v/v. The pre-prepared 10 mM stock solution of the compound to be tested was taken out, and the above dosing program was run for dosing. After the dosing was completed, the cell plate was placed in incubator and culture for 120 h.
On day 6 of the experiment, the cell plate was taken out, 50 μl of CellTiter-Go® (purchased from Promega) was added to each well, and fluorescence signal was measured on Envision (PerkinElmer) according to operation procedures in the manual.
A dose-effect curve: log(inhibitor) vs. response-Variable slope was fitted by using GraphPad Prism 5 software to obtain an IC50 value of the compound for inhibiting cell proliferation inhibition. A formula for calculating an inhibition rate was: […]
Wherein, • Signal value of tested compound: mean fluorescence signal of cells group+medium group+compound group; • Signal value of blank group: mean fluorescence signal of medium group; • Signal value of negative control group: mean fluorescence signal of cells group+medium group.

[1] = test system: HCT116 MTAP−/− subcutaneous xenograft tumors; assay: In vivo effect experiment of HCT116 MTAP−/− subcutaneous xenograft tumors in nude mice
Method: Female Nu/Nu nude mice (6-8 weeks old, Beijing Vital River Laboratory Animal Technology Co., Ltd.) were raised in an SPF animal room at a temperature of 20° C.-25° C., relative humidity of 40%-70%, and light and dark lighting for 12 hours each; and animals can freely drink and eat. The animals were adaptively fed before experiment.
HCT116 MTAP^−/− cells (Horizon) were cultured in vitro for proliferation, cells in logarithmic growth phase were collected and resuspended in a serum-free RPMI-1640 medium, and the cell concentration was adjusted to 6.0×10^7 cells/mL; and 100 μL of the cell suspension was injected subcutaneously into the right anterior armpit of each nude mouse by using a 1 mL syringe, the status of the animals was observed regularly, and the growth of transplanted tumors was monitored regularly.
When the tumor volume reached 100-300 mm^3, animals with too large or too small tumor volume or uncertain tumor formation were eliminated, and tumor bearing mice with good health and similar tumor volume were selected and randomly grouped, 6 mice in each group; the administration group received daily intragastric administration (AG-270: 50 mg/kg, with a structure shown below; compound to be tested: 1-7.5 mg/kg); and the control group was intragastrically administrated with the same volume of blank solvent. In the administration period, the tumor diameter was measured twice a week, the tumor volume was calculated, the animals were weighed, and their weight was recorded.
A formula for calculating tumor volume (TV) is: Tv=½×a×b^2, wherein a represents long diameter of the tumor, and b represents short diameter of the tumor.
Experimental data is calculated and statistically processed by using Microsoft Office Excel 2007 software. Unless otherwise specified, the data were expressed as mean±standard error (Mean SEM), and t-test is used for comparison between two groups.
Growth curves of tumor volume in each group are shown in FIG. 1, results of SAM test in tumors of each group are shown in FIG. 2, and the mean tumor volume and SEM in each group are shown in Table 2 below: […]

T1 sequence (P31153 whole entry): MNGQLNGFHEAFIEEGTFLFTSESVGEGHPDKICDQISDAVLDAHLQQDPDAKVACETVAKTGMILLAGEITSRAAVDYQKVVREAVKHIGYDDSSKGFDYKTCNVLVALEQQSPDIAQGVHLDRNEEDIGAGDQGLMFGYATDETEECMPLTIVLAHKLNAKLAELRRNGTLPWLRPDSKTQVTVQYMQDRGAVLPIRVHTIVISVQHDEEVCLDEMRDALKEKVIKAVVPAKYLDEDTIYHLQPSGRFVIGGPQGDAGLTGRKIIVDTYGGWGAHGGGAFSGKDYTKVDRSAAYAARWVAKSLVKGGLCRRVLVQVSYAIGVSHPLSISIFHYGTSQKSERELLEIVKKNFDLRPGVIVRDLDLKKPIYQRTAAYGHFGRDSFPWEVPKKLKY

In the case of Cn1cc2cc(-c3cn4ccc(OCC(F)(F)F)nc4c(-c4ccc(OC(F)F)cc4)c3=O)ccc2n1 [Example 22, 9-[4-(difluoromethoxy)phenyl]-7-(2-methyl-2H-indazol-5-yl)-2-(2,2,2-trifluoroethoxy)-8H-pyrido[1,2-a]pyrimidin-8-one], the IC50 (MAT2A enzyme) is reported as under 50 nM, the IC50 (HCT116 MTAP −/− cells) is reported as under 150 nM and the “Tumor volume, mean volume” value ([1]; 7.5 mg/kg daily intragastric, day 1 of administration) is reported as 152 mm^3. The “Tumor volume, mean volume” value ([1]; 7.5 mg/kg daily intragastric, day 4 of administration) was 173 mm^3, the “Tumor volume, mean volume” value ([1]; 7.5 mg/kg daily intragastric, day 6 of administration) was 180 mm^3 and the “Tumor volume, mean volume” value ([1]; 7.5 mg/kg daily intragastric, day 8 of administration) was 212 mm^3. The “Tumor volume, mean volume” value ([1]; 7.5 mg/kg daily intragastric, day 11 of administration) was 267 mm^3, the “Tumor volume, mean volume” value ([1]; 7.5 mg/kg daily intragastric, day 13 of administration) was 324 mm^3 and the “Tumor volume, mean volume” value ([1]; 7.5 mg/kg daily intragastric, day 15 of administration) was 375 mm^3.

With O=c1c(-c2ccc(OC(F)F)cc2)cn2ccc(C3CC3)nc2c1-c1ccc(OC(F)F)cc1 [Example 23, 2-cyclopropyl-7,9-bis[4-(difluoromethoxy)phenyl]-8H-pyrido[1,2-a]pyrimidin-8-one] the IC50 (MAT2A enzyme) was under 50 nM, the IC50 (HCT116 MTAP −/− cells) was under 150 nM and the “Tumor volume, mean volume” value ([1]; 1 mg/kg daily intragastric, day 1 of administration) was 152 mm^3. The “Tumor volume, mean volume” value ([1]; 1 mg/kg daily intragastric, day 4 of administration) was 198 mm^3, the “Tumor volume, mean volume” value ([1]; 1 mg/kg daily intragastric, day 6 of administration) was 205 mm^3 and the “Tumor volume, mean volume” value ([1]; 1 mg/kg daily intragastric, day 8 of administration) was 238 mm^3. For the same molecule, the “Tumor volume, mean volume” value ([1]; 1 mg/kg daily intragastric, day 11 of administration) was 266 mm^3, the “Tumor volume, mean volume” value ([1]; 1 mg/kg daily intragastric, day 13 of administration) was 284 mm^3 and the “Tumor volume, mean volume” value ([1]; 1 mg/kg daily intragastric, day 15 of administration) was 312 mm^3. For the same molecule, the “Tumor volume, mean volume” value ([1]; 2.5 mg/kg daily intragastric, day 1 of administration) was 153 mm^3, the “Tumor volume, mean volume” value ([1]; 2.5 mg/kg daily intragastric, day 4 of administration) was 190 mm^3 and the “Tumor volume, mean volume” value ([1]; 2.5 mg/kg daily intragastric, day 6 of administration) was 196 mm^3. For the same molecule, the “Tumor volume, mean volume” value ([1]; 2.5 mg/kg daily intragastric, day 8 of administration) was 193 mm^3, the “Tumor volume, mean volume” value ([1]; 2.5 mg/kg daily intragastric, day 11 of administration) was 208 mm^3 and the “Tumor volume, mean volume” value ([1]; 2.5 mg/kg daily intragastric, day 13 of administration) was 190 mm^3. For the same molecule, the “Tumor volume, mean volume” value ([1]; 2.5 mg/kg daily intragastric, day 15 of administration) was 191 mm^3.

For Cn1cc2cc(-c3cn4ccc(C5CC5)nc4c(-c4ccc5c(c4)OC(F)(F)O5)c3=O)ccc2n1 [Example 26, 2-cyclopropyl-9-(2,2-difluoro-1,3-benzodioxol-5-yl)-7-(2-methyl-2H-indazol-5-yl)-8H-pyrido[1,2-a]pyrimidin-8-one], the IC50 (MAT2A enzyme) was under 50 nM and the IC50 (HCT116 MTAP −/− cells) was under 150 nM.

O=c1c(-c2ccc(OC(F)F)cc2)cn2ccc(C3CC3)nc2c1-c1ccc2c(c1)OC(F)(F)O2 [Example 27, 2-cyclopropyl-9-(2,2-difluoro-1,3-benzodioxol-5-yl)-7-[4-(difluoromethoxy)phenyl]-8H-pyrido[1,2-a]pyrimidin-8-one] was tested, and the IC50 (MAT2A enzyme) was 50 to 200 nM and the IC50 (HCT116 MTAP −/− cells) was over 1000 nM.

O=c1c(-c2ccc3c(c2)OCO3)cn2ccc(C3CC3)nc2c1-c1ccc2c(c1)OCO2 [Example 28, 7,9-bis(2H-1,3-benzodioxol-5-yl)-2-cyclopropyl-8H-pyrido[1,2-a]pyrimidin-8-one] gave an IC50 (MAT2A enzyme) of under 50 nM and an IC50 (HCT116 MTAP −/− cells) of under 150 nM.

O=c1c(-c2ccc3c(c2)OCO3)cn2ccc(C3CC3)nc2c1-c1ccc2c(c1)OC(F)(F)O2 [Example 32, 7-(2H-1,3-benzodioxol-5-yl)-2-cyclopropyl-9-(2,2-difluoro-1,3-benzodioxol-5-yl)pyrido[1,2-a]pyrimidin-8-one] showed an IC50 (MAT2A enzyme) of under 50 nM and an IC50 (HCT116 MTAP −/− cells) of under 150 nM.

CN1Cc2c3cc(-c4cn5ccc(C6CC6)nc5c(-c5ccc(OC(F)F)cc5)c4=O)ccc3nn2CC12CC2 [Example 38, 2-cyclopropyl-9-(4-(difluoromethoxy)phenyl)-7-(2′-methyl-1′,2′-dihydro-4′H-spiro[cyclopropane-1,3′-pyrazino[1,2-b]indazol]-9′-yl)-8H-pyrido[1,2-a]pyrimidin-8-one] gave an IC50 (MAT2A enzyme) of under 50 nM and an IC50 (HCT116 MTAP −/− cells) of under 150 nM.

With O=c1c(-c2ccc3nn4c(c3c2)CNC2(CC2)C4)cn2ccc(C3CC3)nc2c1-c1ccc(OC(F)F)cc1 [Example 39, 2-cyclopropyl-9-(4-(difluoromethoxy)phenyl)-7-(1′,2′-dihydro-4′H-spiro[cyclopropane-1,3′-pyrazino[1,2-b]indazol]-9′-yl)-8H-pyrido[1,2-a]pyrimidin-8-one] the IC50 (MAT2A enzyme) was under 50 nM and the IC50 (HCT116 MTAP −/− cells) was under 150 nM.

Work on Cc1cc(NCC(F)(F)F)nc2c(-c3ccc(OC(F)F)cc3)c(=O)c(-c3ccc(OC(F)F)cc3)cn12 [Example 41, 7,9-bis(4-(difluoromethoxy)phenyl)-4-methyl-2-((2,2,2-trifluoroethyl)amino)-8H-pyrido[1,2-a]pyrimidin-8-one] yielded an IC50 (MAT2A enzyme) of under 50 nM and an IC50 (HCT116 MTAP −/− cells) of under 150 nM.

With Cc1cn2cc(-c3ccc(OC(F)F)cc3)c(=O)c(-c3ccc(OC(F)F)cc3)c2nc1NCC(F)(F)F [Example 42, 7,9-bis(4-(difluoromethoxy)phenyl)-3-methyl-2-((2,2,2-trifluoroethyl)amino)-8H-pyrido[1,2-a]pyrimidin-8-one] the IC50 (MAT2A enzyme) was under 50 nM and the IC50 (HCT116 MTAP −/− cells) was 150 to 400 nM.
